What was measured:
[1] = solubility of carvedilol in aqueous media; type: physicochemical; conditions: about pH 1-2
[2] = resorption after peroral administration of rapid release carvedilol formulations; type: in vivo; conditions: e.g. the commercial formulation
Text: In the case of the peroral administration of rapid release carvedilol formulations, e.g. the commercial formulation, resorption quotas of up to 80% are achieved, with a considerable part of the resorbed carvedilol being very rapidly metabolized.

[3] = investigations into the gastrointestinal resorption of carvedilol; type: in vivo; conditions: passage through the gastrointestinal tract
[4] = dissolution of carvedilol in melted polyethylene glycol 6,000; type: physicochemical; conditions: polyethylene glycol 6,000 melted at about 70° C.
Description: Thus, carvedilol can be dissolved in polyethylene glycol 6,000 which is melted at about 70° C. In this manner there are obtained highly concentrated solutions of carvedilol (up to 500 mg/ml), with the carvedilol being present distributed as a molecular dispersion in the solution. Moreover, further additives, for example cellulose derivatives such as hydroxypropylmethylcelluloses or hydroxypropylcelluloses, can be admixed in order to control the release rate of the active substance. Further, the compositions in accordance with the invention can contain highly dispersed silicon dioxide as an anti-caking agent.

With COc1ccccc1OCCNCC(O)COc1cccc2[nH]c3ccccc3c12 (stereo not shown) [carvedilol, 1-(4-carbazolyloxy)-3-[2-(2-methoxyphenoxy)ethyl-amino]-2-propanol] the “solubility in the strongly acidic region” value [1] was “very low solubility”, the resorption quota [2] was “up to 80%” and the “resorption in the ileum and colon relative to the stomach” value [3] was “only a fraction of the resorption in the stomach”. For the same molecule, the “concentration of the carvedilol solution (molecular dispersion)” value [4] was “up to 500 mg/ml”.

Reference: patent US20050271721A1, “Carvedilol-hydrophilic solutions” (priority 2000, published 2005)
